B1: heparanase: Single chain GS3 heparanase construct comprising the 8 and 50 kDa subunits, purified from baculovirus-infected cells (protein)
chain: QDVVDLDFFTQEPLHLVSPSFLSVTIDANLATDPRFLILLGSPKLRTLARGLSPAYLRFGGTKTDFLIFDPKKESTFEERSYWQSQVNQDICKYGSIPPDVEEKLRLEWPYQEQLLLREHYQKKFKNSTYSRSSVDVLYTFANCSGLDLIFGLNALLRTADLQWNSSNAQLLLDYCSSKGYNISWELGNEPNSFLKKADIFINGSQLGEDFIQLHKLLRKSTFKNAKLYGPDVGQPRRKTAKMLKSFLKAGGEVIDSVTWHHYYLNGRTATKEDFLNPDVLDIFISSVQKVFQVVESTRPGKKVWLGETSSAYGGGAPLLSDTFAAGFMWLDKLGLSARMGIEVVMRQVFFGAGNYHLVDENFDPLPDYWLSLLFKKLVGTKVLMASVQGSKRRKLRVYLHCTNTDNPRYKEGDLTLYAINLHNVTKYLRLPYPFSNKQVDKYLLRPLGPHGLLSKSVQLNGLTLKMVDDQTLPPLMEKPLRPGSSLGLPAFSYSFFVIRNAKVAACI

Key:
[1] = system: B16 mouse melanoma tumors; assay: Tumor vascularization, MSB stained tumor sections; format: in vivo, mice; details: MSB staining
[2] = system: arterial thrombus in the carotid artery; assay: Carotid artery 90% stenosis arterial thrombosis, MSB staining; format: in vivo, mice; details: single s.c. injection, 2 mg/kg; 24 hours after 90% stenosis
Protocol: In a complimentary experiment, mice returned to normal activity after being subjected to stenosis of 90% of the carotid artery. 24 hours later mice were sacrificed. Sections of the carotid artery were analyzed by MSB (Martin, Scarlet, Blue) staining. In the treatment group, following a single s.c. injection of the peptides, almost no fibrin (thrombus) was formed, while in the control group large arterial thrombus was observed. The results are exemplified in FIG. 6B for a control mouse (left panel) and a mouse treated with 2 mg/kg of the peptide set forth in SEQ ID NO: 4 (right panel).

IVC thrombus = assay: Inferior vena cava (IVC) thrombosis model; format: in vivo, mice; details: 2 mg/kg s.c. immediately before IVC exposure; no heparanase injected
Protocol: A large thrombus located distal to the IVC ligation (FIG. 6A, panel I) and after IVC was harvested (FIG. 6A, panel II), was observed. This observation was verified by H&E staining (FIG. 6A, panel III, ×10; FIG. 6A, panel IV, ×100). In subsequent experiments, peptides 3, 4 and 5 were introduced subcutaneously, at a dose of 2 mg/kg, immediately before the IVC exposure. Heparanase was not injected in this line of experiments. Each experimental group included 5 mice. The IVC was re-exposed (FIG. 6A, panel V) and then dissected (FIG. 6A, panel VI). Note that only engorged blood was present and thrombus distal to the IVC ligation was absent. This observation was verified by H&E staining (FIG. 6A, panel VII, ×10; FIG. 6A, panel VIII, ×100). […] Images were visualized through a 0.82 MDC objective lens, captured with a Nikon […] digital camera (Nikon, Tokyo, Japan), and processed with Adobe Photoshop software (Adobe Systems, San Jose, Calif.).

[3] = system: procoagulant effect of heparanase; assay: Heparanase-induced coagulation activation in ICR mice, plasma TAT ELISA; format: in vivo; details: heparanase 0.5 mg/kg i.p.; peptide 1 or 2 mg/kg s.c. after 30 min; blood after 4 hours
Protocol: (§1) Thrombin-antithrombin complex (TAT) complex was evaluated according to the manufacturer recommendations by Enzygnost® TAT micro ELISA purchased from Siemens (Marburg, Germany). D-dimer assay was performed on the STA-R evolution analyzer (Diagnostica Stago) using recombinant STA-LIATEST D-DI kit (Diagnostica Stago).
Heparanase (Hepa) was injected intra-peritoneal to ICR mice at a dose of 0.5 mg/kg. After 30 min. peptides corresponding to SEQ ID NOs: 2-5 and 7 were injected at a dose of 1 mg/kg (dashed fill) or 2 mg/kg (solid fill) subcutaneously between the shoulders, into the loose skin over the neck. Blood was drawn after 4 hours, and the plasma was analyzed by ELISA for thrombin-antithrombin (TAT) levels.

coagulation activation = assay: Intra-peritoneal heparanase injection to ICR mice, plasma TAT, D-Dimer, IL-6; format: in vivo; details: 0.5 mg/kg i.p.; blood after 4 hours
Protocol: as §1
Material and method used as in Example 1. Heparanase (Hepa) was injected intra-peritoneal at a dose of 0.5 mg/kg to ICR mice. After 4 hours blood was drawn and the plasma was studied by ELISA to thrombin-antithrombin complex (TAT), D-Dimer as markers of coagulation activation and IL-6 as marker of sepsis severity. Please note that when compared with the control group (PBS) heparanase (Hepa) increased the levels of TAT and D-Dimer in a similar magnitude to that of LPS injected at a dose of 5 mg/kg that cause a moderate sepsis (FIG. 1A, B).

Row | Molecule | clot formation / thrombus distal to the IVC ligation (IVC thrombus) | procoagulant effect of heparanase (plasma TAT levels) [3] | other results
1 | AEICLLPLDYGPCR [SEQ ID NO: 4, peptide derived from TFPI-2] | absent |  | tumor vascularization [1]: little to null vascularization; fibrin (thrombus) formation in carotid artery [2]: early thrombus
2 | ICLLPLDYGPCRAL [SEQ ID NO: 3, peptide derived from TFPI-2] | absent |  | 
3 | NANNFYTWEAC [SEQ ID NO: 7, peptide derived from TFPI-2] |  | partially inhibited | 
4 | NNAEICLLPLDYGP [SEQ ID NO: 5, peptide derived from TFPI-2] | absent |  | 
5 | NNFYTWEACDDACW [SEQ ID NO: 2, peptide derived from TFPI-2] |  | partially inhibited | 
6 | B1 |  |  | D-Dimer level compared with control group (PBS) (coagulation activation): increased; IL-6 level compared with control group (coagulation activation): did not increase; TAT level compared with control group (PBS) (coagulation activation): increased

Reference: patent publication US10105410B2, “Heparanase inhibitory peptides and use thereof for treating clinical pathologies” (RAMBAM MED-TECH LTD., priority 2014, dated 2018)
